Experimental findings from a polymer gas permeability compilation are described below.

Take `*/C(C)=C(/*)[Si](C)(C)CC` (repeat unit): the CH4 permeability amounted to 1200 Barrer, the CO2 permeability was 4600 Barrer, the H2 permeability is 1930 Barrer and the N2 permeability amounted to 490 Barrer. Besides, the O2 permeability worked out at 970 Barrer.

Compound `*Oc1ccc(C(C)(C)c2ccc(OC(=O)c3cc(C(*)=O)cc(C(C)(C)C)c3)c(C)c2)cc1C` (repeat unit) registered a CH4 permeability of 0.4 Barrer, a CO2 permeability of 8 Barrer, an H2 permeability of 27.1 Barrer and an N2 permeability of 0.393 Barrer. This compound also gave an O2 permeability of 2.37 Barrer.

`*Oc1ccc(C(C)(C)c2ccc(OC(=O)c3cccc(C(*)=O)c3)c(C)c2)cc1C` (repeat unit): the CH4 permeability amounted to 0.0459 Barrer, the CO2 permeability came to 1.24 Barrer, the H2 permeability was 7.79 Barrer and the N2 permeability came out at 0.0628 Barrer. The compound further displayed an O2 permeability of 0.4 Barrer.

With `*Oc1ccc(C(C)(C)c2ccc(OC(=O)c3cccc(C(*)=O)c3)cc2)cc1` (repeat unit), the CH4 permeability was 0.269 Barrer, the CO2 permeability amounted to 5.6 Barrer, the N2 permeability is 0.272 Barrer and the O2 permeability worked out at 1.45 Barrer.

`*Oc1ccc(C(C)(C)c2ccc(OC(=O)c3cccc(C(=O)Oc4cc(-c5cc(*)cc6ccccc56)c5ccccc5c4)c3)cc2)cc1` (repeat unit) yielded a CH4 permeability of 0.148 Barrer, a CO2 permeability of 4 Barrer, an N2 permeability of 0.139 Barrer and an O2 permeability of 0.93 Barrer.

As for `*Oc1ccc(C(C)(C)c2ccc(OCCC(*)O)cc2)cc1` (repeat unit), the CH4 permeability amounted to 0.02 Barrer, the CO2 permeability is 0.5 Barrer, the N2 permeability is 0.019 Barrer and the O2 permeability stood at 0.09 Barrer.

`*Oc1ccc(C(C)(C)c2ccc(Oc3ccc(S(=O)(=O)c4ccc(*)c5ccccc45)cc3)cc2)cc1` (repeat unit): the CH4 permeability stood at 0.08 Barrer, the CO2 permeability was determined as 4.7 Barrer, the N2 permeability turned out to be 0.15 Barrer and the O2 permeability came out at 1.2 Barrer.

On to `*Oc1ccc(C(C)(C)c2ccc(Oc3ccc(S(=O)(=O)c4ccc(*)cc4)cc3)cc2)cc1` (repeat unit), for which the CH4 permeability amounted to 0.25 Barrer, the CO2 permeability was found to be 5.6 Barrer, the H2 permeability was 14 Barrer and the N2 permeability was determined as 0.25 Barrer. This compound had an O2 permeability of 1.4 Barrer.

The compound `*Oc1ccc(C(C)(C)c2cccc(C(C)(C)c3ccc(Oc4ccc(S(=O)(=O)c5ccc(*)cc5)cc4)cc3)c2)cc1` (repeat unit) came in with a CH4 permeability of 0.111 Barrer, a CO2 permeability of 2.8 Barrer, an H2 permeability of 10.6 Barrer and an N2 permeability of 0.11 Barrer. Also, the O2 permeability was 0.69 Barrer.

`*Oc1ccc(C(c2ccc(OC(=O)c3cc(C(*)=O)cc(C(C)(C)C)c3)cc2)(C(F)(F)F)C(F)(F)F)cc1` (repeat unit) displayed a CH4 permeability of 3.47 Barrer, a CO2 permeability of 56.9 Barrer, an H2 permeability of 86.7 Barrer and an N2 permeability of 3.72 Barrer. This compound returned an O2 permeability of 15.7 Barrer.

In turn, `*Oc1ccc(C(c2ccc(OC(=O)c3cccc(C(*)=O)c3)cc2)(C(F)(F)F)C(F)(F)F)cc1` (repeat unit) gave a CH4 permeability of 0.736 Barrer, a CO2 permeability of 16.6 Barrer, an H2 permeability of 37.3 Barrer and an N2 permeability of 0.958 Barrer. The same compound showed an O2 permeability of 4.54 Barrer.

`*Oc1ccc(C(c2ccc(Oc3c(F)c(F)c(COC(C4CCCC(C(OCc5c(F)c(F)c(*)c(F)c5F)(C(F)(F)F)C(F)(F)F)C4)(C(F)(F)F)C(F)(F)F)c(F)c3F)cc2)(C(F)(F)F)C(F)(F)F)cc1` (repeat unit) came in with a CH4 permeability of 0.55 Barrer, a CO2 permeability of 12 Barrer, an H2 permeability of 28 Barrer and an N2 permeability of 0.9 Barrer. In addition, the O2 permeability came out at 3.8 Barrer.
